Measurements published in PubChem BioAssay AID1794805 (Yongcheng Song lab at Baylor College of Medicine, 2022).
Calls of active or inactive are those of the source.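 Rule for the calls: active = EC50 under 50 µM in a live-cell viability test; inactive = the rest.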

Test system: HL60 proliferation, XTT absorbance
Test: antiproliferative activity against HL60 AML cells – cell-based, XTT absorbance, dose response (AID 1794805)

SMILES | EC50
O=C(NCC1CCNCC1)c1coc2cc(-c3ccc(N4CCCCC4)cc3)ccc12 | 9.7 µM
O=C(NCC1CCNCC1)c1cc2cc(-c3cn[nH]c3)ccc2[nH]1 | > 51 µM (inactive)
O=C(NCC1CCNCC1)c1cc2cc(-c3ccc(N4CCCCC4)cc3)ccc2[nH]1 | 50 µM
O=C(NCC1CCNCC1)c1c[nH]c2cc(-c3ccc(N4CCCCC4)cc3)ccc12 | 50 µM
O=C(NCC1CCNCC1)c1c[nH]c2cc(-c3ccc(N4CCCC4)cc3)ccc12 | 50 µM

Other lines, results leading:

EC50 | SMILES
> 51 µM (inactive) | NC(=O)c1ccc(-c2ccc3cc(C(=O)NCC4CCNCC4)sc3c2)cc1
> 51 µM (inactive) | NCc1ccc(-c2ccc3cc(C(=O)NCC4CCNCC4)oc3c2)cc1
10 µM | O=C(NCC1CCNCC1)c1cc2ccc(-c3ccc(N4CCCCC4)cc3)cc2s1
26 µM | O=C(NCC1CCNCC1)c1cc2ccc(-c3ccc(N4CCCC4)cc3)cc2s1
9 µM | O=C(NCC1CCNCC1)c1cc2cc(-c3ccc(N4CCCCC4)cc3)ccc2s1
